Usually IC50 stands for the midpoint of a concentration-inhibition curve. As a reminder, the EC50 is the concentration needed to bring the measured effect to its halfway point.

For 13 molecules, IC50 and EC50 results are on record in patent US7750038B2, “Sulfonylated heterocycles useful for modulation of the progesterone receptor” (Wyeth LLC, priority 2007, dated 2010).

Read-outs that look alike come from different tables or passages of the source.

This assay concerns alkaline phosphatase activity in T47D cells. Nature of the assay: Effects of progestins and antiprogestins on alkaline phosphatase activity in T47D cells. The class given is cell-based. The conditions noted are these: Homo sapiens. As to the method:
Effects of Progestins and Antiprogestins on Alkaline Phosphatase Activity in T47D Cells
PURPOSE: To identify progestins or antiprogestins by determining a compound's effect on alkaline phosphatase activity in T47D cells.
Culture medium: DMEM:F12 (1:1) (GIBCO, BRL) supplemented with 5% (v/v) charcoal stripped fetal bovine serum (not heat-inactivated), 100 U/mL penicillin, 100 μg/mL streptomycin, and 2 mM the GlutaMax™ reagent (GIBCO, BRL).
Alkaline phosphatase assay buffer: • I. 0.1M Tris-HCl, pH 9.8, containing 0.2% the Triton® X-100 reagent • II. 0.1M Tris-HCl, pH 9.8, containing 4 mM p-nitrophenyl phosphate (Sigma).
Frozen T47D cells were thawed in a 37° C. water bath and diluted to 280,000 cells/mL in culture medium. To each well in a 96-well plate (Falcon, Becton Dickinson Labware), 180 μL of diluted cell suspension was added. Twenty μL of reference or test compounds diluted in the culture medium was then added to each well. When testing for progestin antagonist activity, reference antiprogestins or test compounds were added in the presence of 1 nM progesterone. The cells were incubated at 37° C. in a 5% CO2/humidified atmosphere for 24 hours. For high throughput screening, one concentration of each compound was tested at 0.3 μg/mL. Based on an average molecular weight of 300 g/mol for the compounds in the library, the concentration was approximately 1 μM. Subsequently, active compounds were tested in dose response assays to determine EC50 and IC50.
At the end of treatment, the medium was removed from the plate. Fifty μL of assay buffer I was added to each well. The plates were shaken in a titer plate shaker for 15 min. Then, 150 μL of assay buffer II was added to each well. Optical density measurements were taken at 5 min intervals for 30 min at a test wavelength of 405 nm.
For reference and test compounds, a dose response curve was generated for dose (X-axis) vs. the rate of enzyme reaction (slope) (Y-axis). Square root-transformed data were used for analysis of variance and nonlinear dose response curve fitting for both agonist and antagonist modes. Huber weighting was used to down-weight the effects of outliers. EC50 or IC50 values were calculated from the retransformed values. JMP software (SAS Institute, Inc.) is used for both one-way analysis of variance and non-4 linear dose response analysis in both single dose and dose response studies.
Progesterone and trimegestone are reference progestins known in the art and typically show an EC50 of about 0.1 nM to about 2.0 nM.

The mark [1] stands for this setting: progestin antagonist mode in the presence of 1 nM progesterone, 24 hours, read-out: Alkaline Phosphatase T47D IC50.

Turning to `CCS(=O)(=O)N1CCc2cc(-c3ccc(C#N)n3C)cc(F)c21` [Example 8, 5-[1-(ethylsulfonyl)-7-fluoro-2,3-dihydro-1H-indol-5-yl]-1-methyl-1H-pyrrole-2-carbonitrile], the concentration for half-maximal inhibition (IC50) under setting [1] stood at 12.2 nM. On to `CCS(=O)(=O)N1CC(C)(C)c2cc(-c3ccc(C#N)n3C)ccc21` [Example 3, 5-[1-(ethylsulfonyl)-3,3-dimethyl-2,3-dihydro-1H-indol-5-yl]-1-methyl-1H-pyrrole-2-carbonitrile], for which, under setting [1], the IC50 was 6.8 nM. As for `Cn1c(C#N)ccc1-c1ccc2c(c1)CCN2S(C)(=O)=O` [Example 1, 1-methyl-5-[1-(methylsulfonyl)-2,3-dihydro-1H-indole-5-yl]-1H-pyrrole-2-carbonitrile], under setting [1], the IC50 came to 4.3 nM. As for `CC(C)S(=O)(=O)N1CCc2cc(-c3ccc(C#N)n3C)ccc21` [Example 5, 5-[1-(isopropylsulfonyl)-2,3-dihydro-1H-indol-5-yl]-1-methyl-1H-pyrrole-2-carbonitrile], the IC50 under setting [1] was 4.9 nM. Turning to `CC(=O)[C@H]1CC[C@H]2[C@@H]3CCC4=CC(=O)CC[C@]4(C)[C@H]3CC[C@]12C` [Progesterone], the EC50 (agonist mode, typical value of reference compound) was in the range of 0.1 to 2 nM. `CCCS(=O)(=O)N1CCc2cc(-c3ccc(C#N)n3C)ccc21` [Example 6, 1-methyl-5-[1-(propylsulfonyl)-2,3-dihydro-1H-indol-5-yl]-1H-pyrrole-2-carbonitrile]: the half-inhibitory concentration (IC50) under setting [1] stood at 2.3 nM. Consider `Cn1c(C#N)ccc1-c1ccc2c(c1)C(C)(C)CN2S(C)(=O)=O` [Example 2, 5-[3,3-dimethyl-1-(methylsulfonyl)-2,3-dihydro-1H-indol-5-yl]-1-methyl-1H-pyrrole-2-carbonitrile], for which the IC50 under setting [1] worked out at 9.2 nM. Take `CCS(=O)(=O)N1CCc2cc(-c3ccc(C#N)n3C)ccc21` [Example 4, 5-[1-(ethylsulfonyl)-2,3-dihydro-1H-indol-5-yl]-1-methyl-1H-pyrrole-2-carbonitrile]: the IC50 under setting [1] came out at 2.4 nM. Regarding `CCCS(=O)(=O)N1CCCc2cc(-c3ccc(C#N)n3C)ccc21` [Example 11, 1-methyl-5-[1-(propylsulfonyl)-1,2,3,4-tetrahydroquinolin-6-yl]-1H-pyrrole-2-carbonitrile], the IC50 under setting [1] was determined as 3.6 nM. In the case of `CC#C[C@]1(O)CC[C@H]2[C@@H]3CCC4=CC(=O)CCC4=C3[C@@H](c3ccc(N(C)C)cc3)C[C@@]21C` [RU486, reference compound], the IC50 (antagonist mode, typical value of reference compound, read-out: IC50 of reference antiprogestin, alkaline phosphatase T47D) was 0.1 to 2 nM. Regarding `Cn1c(C#N)ccc1-c1cc(F)c2c(c1)CCN2S(C)(=O)=O` [Example 7, 5-[7-fluoro-1-(methylsulfonyl)-2,3-dihydro-1H-indol-5-yl]-1-methyl-1H-pyrrole-2-carbonitrile], the IC50 under setting [1] turned out to be 11.1 nM. For the molecule `Cn1c(C#N)ccc1-c1ccc2c(c1)CCCN2S(C)(=O)=O` [Example 9, 1-methyl-5-[1-(methylsulfonyl)-1,2,3,4-tetrahydroquinolin-6-yl]-1H-pyrrole-2-carbonitrile], the IC50 under setting [1] was 4.4 nM.

As to `CCS(=O)(=O)N1CCCc2cc(-c3ccc(C#N)n3C)ccc21` [Example 10, 5-[1-(ethylsulfonyl)-1,2,3,4-tetrahydroquinolin-6-yl]-1-methyl-1H-pyrrole-2-carbonitrile], the IC50 under setting [1] was 3.15 nM.
